Data on four compounds can be found in ChEMBL document CHEMBL5715260, “Selectivity Literature for EUbOPEN Chemogenomic Library” (2024).

Each structure is given as a SMILES string. Where a SMILES comes first, the peptide text is derived from it. [ ]: non-standard residue; d: D form. The star is where a group is joined. Benzoyl(4-tBu) = CC(C)(C)c1ccc(C(=O)*)cc1; Lys(Et2) = CCN(CC)CCCC[C@H](N)C(=O)O

Data set [1] concerns the target cAMP and cAMP-inhibited cGMP 3',5'-cyclic phosphodiesterase 10A (Homo sapiens) (UniProt Q9Y233). The data set can be described thus: Selectivity interaction (Enzymatic assay) EUB0002694a PDE10A. Also noted: recommended concentration 1 uM. Particulars: at 10 µM.
The target of data set [2] is cGMP-specific 3',5'-cyclic phosphodiesterase (Homo sapiens) (UniProt O76074). The data set is described as follows: Selectivity interaction (Enzymatic assay) EUB0002694a PDE5A. Details: recommended concentration 1 uM. Particulars: at 10 µM.
Data set [3] deals with Substance-K receptor (Homo sapiens) (UniProt P21452). The data set is described as follows: Selectivity interaction (NIMH PDSP panel) EUB0002346a TACR2. Also noted: recommended concentration 1 uM. Particulars: at 10 µM.
The target in data set [4] is Vasopressin V1a receptor (Homo sapiens) (UniProt P37288). The data set can be described thus: Selectivity interaction (CEREP panel) EUB0002346a AVPR1A. Details: recommended concentration 1 uM. Particulars: at 10 µM.
For data set [5], the target named is T1, Kappa-type opioid receptor (Homo sapiens, UniProt P41145). The data set is described as follows: Selectivity interaction (NIMH PDSP panel) EUB0002346a OPRK1. Also noted: recommended concentration 1 uM. Particulars: at 10 µM.
For data set [6], the target named is Vasopressin V2 receptor (Homo sapiens) (UniProt P30518). The data set can be described thus: Selectivity interaction (NIMH PDSP panel) EUB0002346a AVPR2. Particulars: at 10 µM. Also noted: recommended concentration 1 uM.
Data set [7] addresses T1, Kappa-type opioid receptor. The data set can be described thus: Selectivity interaction (CEREP panel) EUB0002346a OPRK1. Also noted: recommended concentration 1 uM. Particulars: at 10 µM.
The target of data set [8] is T2, Mu-type opioid receptor (Homo sapiens, UniProt P35372). The data set is described as follows: Selectivity interaction (NIMH PDSP panel) EUB0002346a OPRM1. Also noted: recommended concentration 1 uM. Particulars: at 10 µM.
Data set [9] has as its target Substance-P receptor (Homo sapiens) (UniProt P25103). The data set is described as follows: Selectivity interaction (NIMH PDSP panel) EUB0002346a TACR1. Particulars: at 10 µM. Details: recommended concentration 1 uM.
In data set [10] the target is Substance-K receptor (Homo sapiens) (UniProt P21452). The data set is described as follows: Selectivity interaction (CEREP panel) EUB0002346a TACR2. Details: recommended concentration 1 uM. The settings on record: at 10 µM.
For data set [11], the target named is T2, Mu-type opioid receptor. The data set is described as follows: Selectivity interaction (CEREP panel) EUB0002346a OPRM1. Also noted: recommended concentration 1 uM. The settings on record: at 10 µM.
Data set [12] deals with Delta-type opioid receptor (Homo sapiens, UniProt P41143). The data set can be described thus: Selectivity interaction (NIMH PDSP panel) EUB0002346a OPRD1. Also noted: recommended concentration 1 uM. The settings on record: at 10 µM.
The target of data set [13] is Vasopressin V1a receptor (Homo sapiens) (UniProt P37288). The data set is described as follows: Selectivity interaction (NIMH PDSP panel) EUB0002346a AVPR1A. Also noted: recommended concentration 1 uM. The settings on record: at 10 µM.
Data set [14] has as its target Vasopressin V1b receptor (Homo sapiens) (UniProt P47901). The data set can be described thus: Selectivity interaction (NIMH PDSP panel) EUB0002346a AVPR1B. Details: recommended concentration 1 uM. The settings on record: at 10 µM.
The target in data set [15] is T3, Bromodomain-containing protein 9 (Homo sapiens, UniProt Q9H8M2).
T3 sequence (Q9H8M2 whole entry): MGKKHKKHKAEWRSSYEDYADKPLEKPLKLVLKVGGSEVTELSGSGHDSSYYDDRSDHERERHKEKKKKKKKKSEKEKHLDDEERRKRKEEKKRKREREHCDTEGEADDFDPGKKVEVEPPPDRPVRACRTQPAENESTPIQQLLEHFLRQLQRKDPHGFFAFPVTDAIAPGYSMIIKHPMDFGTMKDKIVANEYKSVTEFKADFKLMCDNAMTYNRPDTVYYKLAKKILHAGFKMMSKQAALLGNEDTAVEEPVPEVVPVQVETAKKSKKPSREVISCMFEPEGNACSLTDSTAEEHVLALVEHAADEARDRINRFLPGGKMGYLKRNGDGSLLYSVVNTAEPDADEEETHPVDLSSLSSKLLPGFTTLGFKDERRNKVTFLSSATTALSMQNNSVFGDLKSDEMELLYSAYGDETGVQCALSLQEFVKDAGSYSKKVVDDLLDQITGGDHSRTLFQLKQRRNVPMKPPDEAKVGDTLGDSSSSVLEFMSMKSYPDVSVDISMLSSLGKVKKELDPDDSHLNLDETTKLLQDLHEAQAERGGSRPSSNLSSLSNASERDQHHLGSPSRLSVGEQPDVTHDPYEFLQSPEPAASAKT
The data set is described as follows: (§1) Selectivity interaction (Bromodomain panel) EUB0000233b BRD9. Details: recommended concentration 1 uM.

The target of data set [16] is T3, Bromodomain-containing protein 9. Described as §1. Details: recommended concentration 1 uM. The source holds these as a separate data set.
Data set [17] has the same target. The description is as §1. Also noted: recommended concentration 1 uM. The source holds these as a separate data set.
In data set [18] the target is Steroidogenic factor 1 (Homo sapiens) (UniProt Q13285). The data set is described as follows: Selectivity interaction (Reporter gene assay) EUB0000082b NR5A1. Also noted: recommended concentration 3 uM.
Data set [19] concerns the target Alpha trans-inducing protein (Human alphaherpesvirus 1) (UniProt A0A5J6DW59). The data set can be described thus: Selectivity interaction (Reporter gene assay) EUB0000082b UL48. Details: recommended concentration 3 uM.
The target in data set [20] is Nuclear receptor subfamily 2 group E member 1 (Homo sapiens) (UniProt Q9Y466). The data set can be described thus: Selectivity interaction (Reporter gene assay) EUB0000082b NR2E1. Details: recommended concentration 3 uM. Particulars: screened at recom. conc., Selectivity number of off-targets 2.0, Selectivity number of targets 5.0, Source Knowledge inhouse.
Data set [21] addresses Nuclear receptor subfamily 4immunitygroup A member 1 (Homo sapiens) (UniProt P22736). The data set can be described thus: Selectivity interaction (Reporter gene assay) EUB0000082b NR4A1. Also noted: recommended concentration 3 uM.
Data set [22] has as its target T4, Hepatocyte nuclear factor 4-alpha (Homo sapiens) (UniProt P41235).
T4 sequence (whole entry): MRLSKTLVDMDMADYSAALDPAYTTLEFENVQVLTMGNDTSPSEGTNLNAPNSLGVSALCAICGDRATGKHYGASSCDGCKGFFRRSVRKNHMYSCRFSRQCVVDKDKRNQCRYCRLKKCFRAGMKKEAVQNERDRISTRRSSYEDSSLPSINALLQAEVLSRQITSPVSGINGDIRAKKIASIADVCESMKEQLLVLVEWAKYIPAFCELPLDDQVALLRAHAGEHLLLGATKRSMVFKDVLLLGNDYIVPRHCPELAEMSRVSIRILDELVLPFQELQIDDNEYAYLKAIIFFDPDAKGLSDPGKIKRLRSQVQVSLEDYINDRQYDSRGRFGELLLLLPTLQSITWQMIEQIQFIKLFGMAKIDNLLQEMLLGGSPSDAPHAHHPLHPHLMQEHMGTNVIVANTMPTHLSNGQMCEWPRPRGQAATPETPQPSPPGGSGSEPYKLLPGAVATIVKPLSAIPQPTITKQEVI
The data set can be described thus: Selectivity interaction (Reporter gene assay) EUB0000082b HNF4A. Details: recommended concentration 3 uM.

The target of data set [23] is T5, Retinoic acid receptor RXR-alpha (Homo sapiens) (UniProt P19793).
T5 sequence (whole entry): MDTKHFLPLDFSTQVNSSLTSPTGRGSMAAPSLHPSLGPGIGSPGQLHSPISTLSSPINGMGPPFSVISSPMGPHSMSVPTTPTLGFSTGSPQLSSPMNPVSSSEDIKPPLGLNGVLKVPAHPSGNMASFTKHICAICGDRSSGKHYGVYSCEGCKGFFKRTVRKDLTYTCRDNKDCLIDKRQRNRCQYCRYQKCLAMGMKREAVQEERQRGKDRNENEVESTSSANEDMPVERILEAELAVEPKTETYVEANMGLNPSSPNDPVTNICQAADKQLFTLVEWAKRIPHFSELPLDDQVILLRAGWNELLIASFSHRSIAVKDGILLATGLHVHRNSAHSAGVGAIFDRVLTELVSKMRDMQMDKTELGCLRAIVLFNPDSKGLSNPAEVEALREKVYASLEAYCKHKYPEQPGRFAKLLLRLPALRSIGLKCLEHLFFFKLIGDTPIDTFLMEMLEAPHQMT
The data set is described as follows: Selectivity interaction (Reporter gene assay) EUB0000082b RXRA. Also noted: recommended concentration 3 uM. Particulars: reference bexarotene 1 uM, Selectivity number of off-targets 0.0, Selectivity number of targets 1.0, Source Knowledge inhouse.

The target of data set [24] is NR1I2 (nuclear receptor subfamily 1 group I member 2, PXR) (Homo sapiens, UniProt O75469). The data set can be described thus: Selectivity interaction (Reporter gene assay) EUB0000082b NR1I2. Details: recommended concentration 3 uM. Particulars: read-out: Fold activation.
Data set [25] concerns the target T6, Nuclear receptor subfamily 2 group C member 1 (Homo sapiens) (UniProt P13056).
T6 sequence (whole entry): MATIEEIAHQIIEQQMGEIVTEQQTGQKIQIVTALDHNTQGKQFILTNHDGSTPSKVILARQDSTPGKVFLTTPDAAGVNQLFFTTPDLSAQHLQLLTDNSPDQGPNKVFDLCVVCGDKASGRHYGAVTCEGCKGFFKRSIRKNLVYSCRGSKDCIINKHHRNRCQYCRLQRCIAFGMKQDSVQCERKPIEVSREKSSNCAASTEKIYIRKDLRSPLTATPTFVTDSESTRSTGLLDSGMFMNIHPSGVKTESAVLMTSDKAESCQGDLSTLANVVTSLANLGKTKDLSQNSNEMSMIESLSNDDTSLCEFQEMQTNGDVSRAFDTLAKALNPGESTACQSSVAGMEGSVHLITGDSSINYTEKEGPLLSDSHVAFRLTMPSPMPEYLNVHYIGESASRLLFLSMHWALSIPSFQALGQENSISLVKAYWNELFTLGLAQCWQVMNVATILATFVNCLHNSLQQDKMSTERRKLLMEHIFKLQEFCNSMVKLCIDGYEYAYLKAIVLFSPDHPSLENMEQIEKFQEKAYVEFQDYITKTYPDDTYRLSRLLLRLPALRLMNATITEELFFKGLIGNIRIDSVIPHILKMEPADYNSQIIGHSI
The data set is described as follows: Selectivity interaction (Reporter gene assay) EUB0000082b NR2C1. Also noted: recommended concentration 3 uM.

Chain of Substance-K receptor (Homo sapiens) (P21452 whole entry): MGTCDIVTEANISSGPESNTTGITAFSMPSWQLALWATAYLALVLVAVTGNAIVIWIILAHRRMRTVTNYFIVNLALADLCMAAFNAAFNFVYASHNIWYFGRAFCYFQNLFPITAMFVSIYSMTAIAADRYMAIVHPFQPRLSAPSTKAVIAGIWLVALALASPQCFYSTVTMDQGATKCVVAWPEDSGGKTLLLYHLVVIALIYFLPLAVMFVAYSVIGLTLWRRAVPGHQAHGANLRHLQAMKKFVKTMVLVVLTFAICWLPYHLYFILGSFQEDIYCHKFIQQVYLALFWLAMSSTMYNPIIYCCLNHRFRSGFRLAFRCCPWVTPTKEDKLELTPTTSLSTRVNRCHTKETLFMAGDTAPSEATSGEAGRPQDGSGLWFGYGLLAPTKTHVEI
Chain of Vasopressin V1a receptor (Homo sapiens) (P37288 whole entry, looked up): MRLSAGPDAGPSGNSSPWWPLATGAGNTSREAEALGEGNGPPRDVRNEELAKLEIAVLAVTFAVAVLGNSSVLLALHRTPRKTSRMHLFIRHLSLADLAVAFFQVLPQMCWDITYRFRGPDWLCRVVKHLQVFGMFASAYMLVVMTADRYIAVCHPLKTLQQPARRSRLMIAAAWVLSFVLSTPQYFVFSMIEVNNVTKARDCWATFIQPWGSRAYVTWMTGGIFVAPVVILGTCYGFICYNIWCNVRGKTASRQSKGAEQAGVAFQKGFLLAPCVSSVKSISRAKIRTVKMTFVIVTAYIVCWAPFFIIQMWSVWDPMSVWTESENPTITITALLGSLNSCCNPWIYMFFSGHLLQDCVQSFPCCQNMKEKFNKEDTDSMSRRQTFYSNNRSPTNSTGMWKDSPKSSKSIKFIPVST
T1 sequence (P41145 whole entry): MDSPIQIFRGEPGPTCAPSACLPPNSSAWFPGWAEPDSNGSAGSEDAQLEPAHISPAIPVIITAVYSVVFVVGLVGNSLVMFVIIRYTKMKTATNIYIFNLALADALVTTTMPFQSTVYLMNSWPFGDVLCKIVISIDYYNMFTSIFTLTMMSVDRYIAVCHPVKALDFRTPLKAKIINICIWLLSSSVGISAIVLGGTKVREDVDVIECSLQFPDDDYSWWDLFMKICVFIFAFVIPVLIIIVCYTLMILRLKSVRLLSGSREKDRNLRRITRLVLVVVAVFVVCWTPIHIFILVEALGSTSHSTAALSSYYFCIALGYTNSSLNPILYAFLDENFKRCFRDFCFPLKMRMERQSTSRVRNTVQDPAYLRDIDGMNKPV
T2 sequence (P35372 whole entry): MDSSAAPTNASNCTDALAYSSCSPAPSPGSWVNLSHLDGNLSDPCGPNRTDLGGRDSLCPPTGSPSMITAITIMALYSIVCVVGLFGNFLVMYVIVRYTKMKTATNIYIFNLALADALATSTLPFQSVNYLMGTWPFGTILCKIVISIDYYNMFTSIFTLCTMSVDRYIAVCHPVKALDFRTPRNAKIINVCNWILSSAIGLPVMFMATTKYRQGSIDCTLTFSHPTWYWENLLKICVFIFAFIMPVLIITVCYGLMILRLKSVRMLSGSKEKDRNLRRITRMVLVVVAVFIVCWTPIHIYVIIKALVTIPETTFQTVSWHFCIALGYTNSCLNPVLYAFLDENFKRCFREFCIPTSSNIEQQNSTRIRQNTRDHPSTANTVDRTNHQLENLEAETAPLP
Chain of NR1I2 (nuclear receptor subfamily 1 group I member 2, PXR) (O75469 whole entry): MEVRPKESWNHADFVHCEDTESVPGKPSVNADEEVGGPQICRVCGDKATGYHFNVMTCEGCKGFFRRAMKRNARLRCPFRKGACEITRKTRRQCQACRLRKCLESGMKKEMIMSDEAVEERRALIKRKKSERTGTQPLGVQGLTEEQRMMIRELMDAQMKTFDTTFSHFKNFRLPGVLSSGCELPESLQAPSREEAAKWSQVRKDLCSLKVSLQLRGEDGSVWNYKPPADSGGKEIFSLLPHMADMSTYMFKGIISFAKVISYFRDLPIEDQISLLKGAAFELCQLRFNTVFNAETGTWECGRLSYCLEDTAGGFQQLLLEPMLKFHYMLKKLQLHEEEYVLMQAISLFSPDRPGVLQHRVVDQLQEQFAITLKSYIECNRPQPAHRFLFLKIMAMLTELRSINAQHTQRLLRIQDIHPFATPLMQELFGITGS
Chain of Steroidogenic factor 1 (Homo sapiens) (Q13285 whole entry): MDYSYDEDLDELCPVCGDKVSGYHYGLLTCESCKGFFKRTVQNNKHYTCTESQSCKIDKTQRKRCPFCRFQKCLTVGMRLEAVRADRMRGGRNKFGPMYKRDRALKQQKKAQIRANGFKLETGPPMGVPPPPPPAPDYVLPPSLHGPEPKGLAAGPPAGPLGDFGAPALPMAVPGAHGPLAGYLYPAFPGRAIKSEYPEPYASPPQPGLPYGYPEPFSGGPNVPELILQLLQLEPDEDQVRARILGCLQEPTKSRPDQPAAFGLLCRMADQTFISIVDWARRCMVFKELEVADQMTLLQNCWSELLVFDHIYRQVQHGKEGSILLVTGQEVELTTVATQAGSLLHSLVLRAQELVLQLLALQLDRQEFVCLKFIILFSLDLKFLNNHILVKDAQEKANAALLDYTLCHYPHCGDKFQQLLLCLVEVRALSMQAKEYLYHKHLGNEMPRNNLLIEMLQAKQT
Chain of Nuclear receptor subfamily 2 group E member 1 (Homo sapiens) (Q9Y466 whole entry): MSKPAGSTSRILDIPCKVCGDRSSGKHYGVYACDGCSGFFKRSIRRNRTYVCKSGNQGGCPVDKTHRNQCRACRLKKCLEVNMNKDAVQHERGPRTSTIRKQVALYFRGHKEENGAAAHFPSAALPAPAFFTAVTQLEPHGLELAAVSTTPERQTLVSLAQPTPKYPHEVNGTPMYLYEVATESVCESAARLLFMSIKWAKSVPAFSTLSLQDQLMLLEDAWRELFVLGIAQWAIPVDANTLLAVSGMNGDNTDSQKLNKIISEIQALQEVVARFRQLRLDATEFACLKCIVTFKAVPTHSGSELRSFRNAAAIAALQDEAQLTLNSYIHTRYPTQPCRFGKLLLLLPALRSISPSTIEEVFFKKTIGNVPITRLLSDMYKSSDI
Chain of Substance-P receptor (Homo sapiens) (P25103 whole entry): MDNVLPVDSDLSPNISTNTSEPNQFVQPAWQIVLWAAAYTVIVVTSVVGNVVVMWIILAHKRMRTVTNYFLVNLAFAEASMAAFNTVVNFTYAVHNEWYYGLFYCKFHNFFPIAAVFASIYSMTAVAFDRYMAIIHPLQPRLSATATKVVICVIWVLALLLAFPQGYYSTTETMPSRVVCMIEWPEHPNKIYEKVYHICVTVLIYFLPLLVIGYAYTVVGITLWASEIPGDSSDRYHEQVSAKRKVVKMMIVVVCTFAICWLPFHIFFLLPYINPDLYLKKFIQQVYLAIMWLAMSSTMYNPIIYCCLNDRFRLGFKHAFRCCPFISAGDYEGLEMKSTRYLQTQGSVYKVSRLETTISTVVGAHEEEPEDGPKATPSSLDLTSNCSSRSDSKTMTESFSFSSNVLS
Chain of Delta-type opioid receptor (P41143 whole entry): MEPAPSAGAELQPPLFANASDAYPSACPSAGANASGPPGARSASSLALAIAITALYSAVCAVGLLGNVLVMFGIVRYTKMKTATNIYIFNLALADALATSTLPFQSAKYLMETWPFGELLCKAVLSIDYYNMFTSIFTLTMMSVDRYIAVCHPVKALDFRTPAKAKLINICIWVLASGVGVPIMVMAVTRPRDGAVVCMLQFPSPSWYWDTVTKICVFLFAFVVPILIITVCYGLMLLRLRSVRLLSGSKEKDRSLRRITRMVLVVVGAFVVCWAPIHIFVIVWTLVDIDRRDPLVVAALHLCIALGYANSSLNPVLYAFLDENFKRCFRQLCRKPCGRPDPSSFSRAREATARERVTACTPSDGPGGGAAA
Chain of Alpha trans-inducing protein (Human alphaherpesvirus 1) (A0A5J6DW59 as listed by the source): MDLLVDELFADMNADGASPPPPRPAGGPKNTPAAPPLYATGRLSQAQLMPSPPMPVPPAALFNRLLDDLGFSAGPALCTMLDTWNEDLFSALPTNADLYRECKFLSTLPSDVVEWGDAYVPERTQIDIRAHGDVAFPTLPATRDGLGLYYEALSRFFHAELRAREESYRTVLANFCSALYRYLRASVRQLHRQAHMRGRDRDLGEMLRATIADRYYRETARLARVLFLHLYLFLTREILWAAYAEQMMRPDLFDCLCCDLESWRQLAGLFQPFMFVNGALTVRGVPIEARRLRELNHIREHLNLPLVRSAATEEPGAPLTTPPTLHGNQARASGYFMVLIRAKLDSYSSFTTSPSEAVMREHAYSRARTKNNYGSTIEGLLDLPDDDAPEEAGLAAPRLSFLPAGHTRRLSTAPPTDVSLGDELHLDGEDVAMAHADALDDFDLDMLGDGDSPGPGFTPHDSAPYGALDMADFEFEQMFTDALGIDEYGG
Chain of Nuclear receptor subfamily 4immunitygroup A member 1 (Homo sapiens) (P22736 whole entry): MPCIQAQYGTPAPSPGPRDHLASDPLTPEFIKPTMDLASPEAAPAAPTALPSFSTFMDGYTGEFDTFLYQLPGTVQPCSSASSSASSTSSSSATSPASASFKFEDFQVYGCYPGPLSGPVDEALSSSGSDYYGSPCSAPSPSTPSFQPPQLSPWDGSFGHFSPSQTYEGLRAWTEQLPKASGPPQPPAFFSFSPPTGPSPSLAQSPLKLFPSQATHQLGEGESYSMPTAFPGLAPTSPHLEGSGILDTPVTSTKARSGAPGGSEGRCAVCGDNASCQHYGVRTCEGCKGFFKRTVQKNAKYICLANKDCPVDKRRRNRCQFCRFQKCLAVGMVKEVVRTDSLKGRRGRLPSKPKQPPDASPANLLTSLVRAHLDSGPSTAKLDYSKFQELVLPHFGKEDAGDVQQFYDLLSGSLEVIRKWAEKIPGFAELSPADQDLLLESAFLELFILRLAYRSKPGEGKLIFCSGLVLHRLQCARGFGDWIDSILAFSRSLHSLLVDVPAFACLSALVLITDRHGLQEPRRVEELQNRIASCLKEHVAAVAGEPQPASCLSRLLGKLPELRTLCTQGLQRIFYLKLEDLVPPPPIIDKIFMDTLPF

For the compound `N#Cc1ccc(-c2c3n(c4cccnc24)CCN(C2CC2)C3=O)cc1F`, the inhibition came out at 82.1% in data set [1] and 61.8% in data set [2].

In the case of `CCN(CC)CCCC[C@H](NC(=O)[C@H](CC(C)C)NC(=O)[C@H](C)NC(=O)[C@H](Cc1ccccc1)NC(=O)c1ccc(C(C)(C)C)cc1)C(=O)N[C@@H](CO)C(=O)OC` ({Benzoyl(4-tBu)}-FAL[Lys(Et2)]S-OMe), the Inhibition of control is more than 50% in data set [3]; 85% in [4]; more than 50% in [5]; more than 50% in data set [6]; 91% in data set [7]; more than 50% at Mu-type opioid receptor [8]. Moreover, the Inhibition of control was more than 50% in [9]; 75% in data set [10]; 51% at Mu-type opioid receptor [11]; more than 50% in data set [12]; more than 50% in data set [13]; more than 50% in data set [14].

For the compound `CN(C)CCCOc1ccc(-c2cc(NCCCn3cccn3)nc(S(C)(=O)=O)n2)cc1`, the IC50 in data set [15], in data set [16] and in data set [17] was 1400 nM throughout.

`Fc1ccc(-c2c3cccc(C(F)(F)F)c3nn2Cc2ccc(F)cc2Cl)cc1` [LXR-623] registered a Remaining activity in data set [18] of 0.876. In addition, the P-value in data set [19] turned out to be 4.11e-06. The Fold activation in data set [20] amounted to 1.84; in data set [21], 1.28; in [22] it was 0.867; in data set [25] it was 1.63. In data set [23], this compound displayed a Relative activation of 0.523%. Also, the fold induction in [24] was determined as 2.24.
